These results are taken from patent US20160051706A1, “PROCESS FOR PRODUCING A COMPLEX OF A LANTHANIDE WITH A MACROCYCLIC LIGAND” (AGFA HEALTHCARE, priority 2013, published 2016).

The nature of data set [1]: Moisture content of DOTA (Karl Fischer) over time at controlled relative humidity. Type of data set: physicochemical. Conditions: Temp. 20 ± 2° C. As for the experimental part: The measurement of the moisture content in DOTA is performed as described in the semi-micro method of Karl Fischer (Fischer, Karl-Pharm. Eur. Section 2.5.12). This section and the next section illustrates how the moisture content in a batch of a macrocyclic ligand changed when the product was exposed to different conditions of relative humidity. The moisture content in the samples was measured using methods known to those skilled in the art. In this example, the measurement of the content of moisture in DOTA was performed as described above. Two samples of DOTA were kept in conditions of relative humidity (RH)=30+5% at a temperature of Temp=20+2° C. From these samples, small samples were taken at different times (T0=beginning of the experiment; T30=T0+30 min; T90=T0+90 min; and […]=T0+300 min) and the moisture content was measured as described above. Each experiment (Exp.) was performed twice and the average of each (Ind.) was determined (Avg.). This measurement, as the previous one, illustrated how the moisture content in a batch of a macrocyclic ligand was affected by the environmental relative humidity conditions. Therefore, the previous experiments were repeated in the same conditions but at a RH=75+5%. Again, each experiment (Exp.) was performed twice and the average of each (Ind.) was determined (Avg.).

The conditions of data set [2]: LD50 better than for free DOTA; cited from earlier work.

Each structure is given as a SMILES string. Where “and” joins values, the source holds several entries; their conditions need not be identical. Equal entries are not always repeated.

With `O=C(O)CN1CCN(CC(=O)O)CCN(CC(=O)O)CCN(CC(=O)O)CC1` [DOTA, 1,4,7,10-tetraazacyclododecane-1,4,7,10-tetraacetic acid], the “Moisture content DOTA, Avg.” value in data set [1] (T0, RH 30 ± 5%) is 4.929 wt. % and 5.25 wt. %; in data set [1] (T0, RH 75 ± 5%), 4.94 wt. % and 5.25 wt. %; in data set [1] (T30 (T0+30 min), RH 30 ± 5%) it was 4.98 wt. % and 6.20 wt. %; in data set [1] (T30 (T0+30 min), RH 75 ± 5%), 6.71 wt. % and 6.65 wt. %; in data set [1] (T90 (T0+90 min), RH 30 ± 5%), 5.00 wt. % and 6.12 wt. %; in data set [1] (T90 (T0+90 min), RH 75 ± 5%), 7.34 wt. % and 6.88 wt. %. The “Moisture content DOTA, Avg.” value was 5.15 wt. % and 6.19 wt. % in data set [1] (T300 (T0+300 min), RH 30 ± 5%); 5.86 wt. % and 4.36 wt. % in data set [1] (T300 (T0+300 min), RH 75 ± 5%). The “Moisture content DOTA, Ind.” value in data set [1] (T0, RH 30 ± 5%) was 5.150 wt. % and 4.941 wt. % and 4.929 wt. % and 5.346 wt. %; in data set [1] (T0, RH 75 ± 5%), 5.150 wt. % and 4.941 wt. % and 4.929 wt. % and 5.346 wt. %; in data set [1] (T30 (T0+30 min), RH 30 ± 5%) it was 6.247 wt. % and 4.944 wt. % and 5.020 wt. % and 6.154 wt. %; in data set [1] (T30 (T0+30 min), RH 75 ± 5%) it was 6.851 wt. % and 6.734 wt. % and 6.694 wt. % and 6.449 wt. %; in data set [1] (T90 (T0+90 min), RH 30 ± 5%), 6.170 wt. % and 5.038 wt. % and 4.954 wt. % and 6.062 wt. %; in data set [1] (T90 (T0+90 min), RH 75 ± 5%), 6.789 wt. % and 7.475 wt. % and 7.200 wt. % and 6.962 wt. %. Moreover, the “Moisture content DOTA, Ind.” value in data set [1] (T300 (T0+300 min), RH 30 ± 5%) was 6.268 wt. % and 5.178 wt. % and 5.114 wt. % and 6.106 wt. %; in data set [1] (T300 (T0+300 min), RH 75 ± 5%), 4.609 wt. % and 5.914 wt. % and 5.813 wt. % and 4.111 wt. %.

As for `O=C([O-])CN1CCN(CC(=O)[O-])CCN(CC(=O)[O-])CCN(CC(=O)[O-])CC1.[Ca+2].[Na+].[Na+]` [Na2 [Ca-DOTA]], the “LD50 of Na2 [Ca-DOTA] relative to free DOTA” value in data set [2] is “at least 40 times”.
